Values of other authors, collected in the PKSmart pharmacokinetics tables (Seal et al. 2025).

Legend:
[1] = Lombardo, Berellini, Obach 2018, Drug Metab Dispos 46:1466, doi 10.1124/dmd.118.082966; conditions: human; for MRT / Vd / half-life / clearance: in vivo, iv; for fraction unbound: plasma
[2] = Lombardo et al. 2013, J Clin Pharmacol 53:178, doi 10.1177/0091270012440282; conditions: for Vd / clearance: in vivo, iv; for fraction unbound: plasma

| Compound | MRT [1] [h] | Vd [1] [L/kg] | half-life [1] [h] | Vd ([2]; dog) [L/kg] | Vd ([2]; rat) [L/kg] | clearance [1] [mL/min/kg] | clearance ([2]; dog) [mL/min/kg] | Vd ([2]; monkey) [L/kg] | clearance ([2]; monkey) [mL/min/kg] | fraction unbound ([2]; monkey) | clearance ([2]; rat) [mL/min/kg] | fraction unbound ([2]; rat) | fraction unbound ([2]; dog) | fraction unbound [1] |
| --- | --- | --- | --- | --- | --- | --- | --- | --- | --- | --- | --- | --- | --- | --- |
| CC(C)NCC(O)COc1cccc2[nH]ccc12 (stereo not given) | 2.6 | 1.2 | 2.2 | 17 | 1.36 |  |  |  |  |  |  |  |  |  |
| NCC1(CC(=O)O)CCCCC1 | 7 | 0.71 | 5.3 | 0.16 | 1.1 | 1.7 | 2.3 | 0.65 | 2.3 | 0.02 | 9.1 | 0.02 |  |  |
| CN/C(=C\[N+](=O)[O-])NCCSCc1ccc(CN(C)C)o1 | 2.1 | 1.2 | 2.1 | 1.65 | 2.87 |  |  |  |  |  |  | 1 |  |  |
| COCc1c(-c2ccc(F)cc2)c(=CC[C@@H](O)C[C@@H](O)CC(=O)O)c(C(C)C)nc1=C(C)C | 1.8 | 0.33 | 1.8 |  | 3 | 2.9 |  |  |  |  | 27 |  |  |  |
| CC(=O)Nc1ccc(O)cc1 |  |  |  |  |  |  |  |  |  |  |  | 0.27 |  |  |
| CN(C)CCCC1(c2ccc(F)cc2)OCc2cc(C#N)ccc21 (stereo not given) | 47 |  | 33 | 10 | 21 | 4.3 | 14 | 10 | 40 | 0.399 | 82 | 0.26 | 0.444 |  |
| O=[N+]([O-])O[C@@H]1CO[C@H]2[C@@H]1OC[C@@H]2O | 5.8 | 0.7 | 4.1 | 0.82 |  | 2 | 6.9 |  |  |  | 2.5 |  |  |  |
| CC(C)c1cccc(C(C)C)c1O | 2.2 | 4.7 | 3.2 | 2.46 | 1.37 | 36 | 39.8 |  |  |  | 107 | 0.03 | 0.02 | 0.016 |
| COc1ccnc(C[S+](O)c2nc3ccc(OC(F)F)cc3[n-]2)c1OC (stereo not given) | 1.3 | 0.17 | 1.9 |  | 0.35 | 2.2 |  |  |  |  | 8.5 |  |  | 0.02 |
| CCC1=NC(=O)C2CSSCC/C=C\[C@H](CC(=O)NC(C(C)C)C(=O)N2)OC(=O)C(C(C)C)NC1=O (stereo not given in full) |  |  |  |  | 63.8 |  |  | 4.95 | 27.9 |  | 625 |  |  |  |
| C[C@H]1[C@H](OC(=O)CCC(=O)O)O[C@@H]2O[C@@]3(C)CC[C@H]4[C@H](C)CC[C@@H]1[C@@]24OO3 | 0.32 |  | 0.22 |  |  | 1070 | 44 |  |  |  | 212 | 0.22 | 0.181 | 0.25 |
| CC1(C)S[C@@H]2C(NC(=O)C(C(=O)O)c3ccsc3)C(=O)N2C1C(=O)O (stereo not given in full) | 1.5 | 0.16 | 1 | 0.28 |  | 1.8 | 4.3 |  |  |  |  |  |  | 0.55 |
| CC[C@@]1(O)CC(=O)OCc2c1cc1n(c2=O)Cc2cc3cc(F)c(F)cc3nc2-1 | 3.87 | 1.42 | 3.1 | 2.1 | 2 | 8.42 | 21.5 |  |  |  | 23 |  |  | 0.126 |
| COc1ccc2nc([S+](O)Cc3ncc(C)c(OC)c3C)[n-]c2c1 (stereo not given) |  |  |  |  | 0.44 |  |  |  |  |  | 53 | 0.19 |  |  |
| CN(c1nc2ccccc2s1)C1CCN(CC(O)COc2ccc(F)cc2)CC1 (stereo not given) |  |  |  |  | 5.8 |  |  |  |  |  | 35.9 | 0.016 |  |  |
| O=C(O)CCCCO/N=C(/c1cccnc1)c1cccc(C(F)(F)F)c1 |  |  |  |  | 0.78 |  |  |  |  |  | 2 | 0.05 |  |  |
| COC1CC(OC2C(C)C(=O)OC(C)C(C)C(O)C(C)C(=O)C3(CO3)CC(C)C(OC3OC(C)CC(N(C)C)C3O)C2C)OC(C)C1O (stereo not given) |  |  |  | 1.6 | 6.8 |  | 12 |  |  |  | 51 | 0.46 | 0.13 |  |
| CN[C@@H]1C[C@H]2O[C@@](C)([C@@H]1OC)n1c3ccccc3c3c4c(c5c6ccccc6n2c5c31)C(=O)N[C@@H]4O |  |  |  | 6.09 | 16.7 |  | 10.2 |  |  |  | 65 |  | 0.0074 |  |
| COC(=O)Nc1nc2ccc(C(=O)c3ccccc3)cc2[nH]1 |  |  |  |  | 2.6 |  |  |  |  |  | 9.8 |  |  |  |
| O=C(OC1CC2CC3C[C@@H](C1)N2CC3=O)c1c[nH]c2ccccc12 (stereo not given in full) |  |  |  |  | 26 |  | 27 |  | 77 | 0.5 | 72 |  | 0.5 |  |
| C[C@@H](O)C1C(=O)N2C(C(=O)O)=C(S[C@@H]3CN[C@H](CNS(N)(=O)=O)C3)[C@H](C)[C@H]12 (stereo not given in full) |  |  |  |  |  |  | 4.7 |  | 7.7 | 0.94 | 35.7 | 0.65 | 0.9 |  |
| Cn1c(=O)c2[nH]cnc2n(C)c1=O |  |  |  | 0.68 |  |  | 1.8 | 0.69 | 3.8 |  | 2.25 |  |  |  |
| [H]/N=C(\N)N1CCC[C@@H](CNC(=O)CC(NS(=O)(=O)c2ccc3ccccc3c2)C(=O)N(CC(=O)O)C2CC2)C1 (stereo not given in full) |  |  |  | 0.64 | 0.6 |  |  | 0.32 |  |  |  | 0.33 | 0.52 |  |
| COc1ccc(-c2nc3ccc(C4=NNC(=O)CC4C)cc3[nH]2)cc1 (stereo not given) |  |  |  |  | 3.5 |  |  |  |  |  |  |  |  |  |
| Valproic Acd |  |  |  | 0.33 | 0.66 |  | 3.03 | 0.25 | 4.2 | 0.22 | 4.2 | 0.366 | 0.215 |  |
| [H]/N=C(\N)c1ccc(C(=O)NC(Cc2ccc(O)cc2)C(=O)N2CCC(OCC(=O)O)CC2)cc1 (stereo not given) |  |  |  | 0.75 | 0.24 |  |  | 0.29 |  |  |  |  |  |  |
| C#CCN(C)[C@H](C)Cc1ccccc1 |  |  |  | 9.46 |  |  | 160 |  |  |  |  | 0.31 |  |  |
